Source: US9232799B2, “N-[(het)arylethyl)] pyrazole(thio)carboxamides and their heterosubstituted analogues” (BAYER INTELLECTUAL PROPERTY GMBH, priority 2010, dated 2016)
Several values for one entry are separate records, joined by “and”; a condition that tells them apart may be missing. Equal values may be shown once.

Legend:
Botrytis cinerea = experiment: In vivo preventive test on Botrytis cinerea (beans); settings: preventive, beans, lesion size 2 days after inoculation; for pest or weed control at 500 ppm: 500 ppm of active ingredient
Text: To test for preventive activity, young plants are sprayed with the preparation of active compound. After the spray coating has dried on, 2 small pieces of agar covered with growth of Botrytis cinerea are placed on each leaf.

aflatoxines production = experiment: microbe, parasite or virus in culture; type: cell-based, Aspergillus parasiticus; settings: for inhibition at 50 µM: Aspergillus parasiticus, 168 h, read-out: % Inhibition of Aflatoxin at 50 μM
Venturia inaequalis = experiment: In vivo preventive test on Venturia inaequalis (apple scab); settings: 100 ppm of active ingredient, evaluated 10 days after inoculation
Sphaerotheca fuliginea = experiment: In vivo preventive test on Sphaerotheca fuliginea (cucumber); settings: 500 ppm of active ingredient, evaluated 7 days after inoculation
Text: One day after this treatment, the plants are inoculated with an aqueous spore suspension of Sphaerotheca fuliginea.

Pyrenophora teres = experiment: In vivo preventive test on Pyrenophora teres (barley); settings: 500 ppm of active ingredient, evaluated 7-9 days after inoculation
Text: One day after this treatment, the plants are inoculated with an aqueous spore suspension of Pyrenophora teres.

[1] = system: Blumeria graminis f.sp. hordei; experiment: In vivo preventive test on Blumeria graminis (barley); settings: 500 ppm of active ingredient, evaluated 7 days after inoculation
Text: (§1) To test for preventive activity, young plants are sprayed with the preparation of active compound or active compound combination at the stated rate of application.

Fusarium graminearum = experiment: microbe, parasite or virus in culture; type: cell-based; settings: for inhibition at 50 µM: Fusarium graminearum, 168 h, read-out: % Inhibition of fungal growth at 50 μM
Alternaria solani = experiment: In vivo preventive test on Alternaria solani (tomato); settings: 500 ppm of active ingredient, evaluated 7 days after inoculation
Text: One day after this treatment, the plants are inoculated with an aqueous spore suspension of Alternaria solani.

Septoria tritici = experiment: In vivo preventive test on Septoria tritici (wheat); settings: 500 ppm of active ingredient, evaluated 21 days after inoculation
Text: as §1

[2] = logP by HPLC on reversed-phase column (C 18), EEC Directive 79/831 Annex V.A8; type: physicochemical
Experimental: In table 1, the logP values were determined in accordance with EEC Directive 79/831 Annex V.A8 by HPLC (High Performance Liquid Chromatography) on a reversed-phase column (C 18), using the method described below: Temperature: 40° C.; […]

[3] = system: Fusarium nivale (var. majus); experiment: In vivo preventive test on Fusarium nivale (wheat); settings: 500 ppm of active ingredient, evaluated 5 days after inoculation
Text: as §1

Puccinia triticina = experiment: In vivo preventive test on Puccinia triticina (wheat); settings: dose 500 ppm of active ingredient, evaluated 8 days after inoculation
Leptosphaeria nodorum = experiment: In vivo preventive test on Leptosphaeria nodorum (wheat); settings: 500 ppm of active ingredient, evaluated 7-9 days after inoculation
Text: One day after this treatment, the plants are inoculated with an aqueous spore suspension of Leptosphaeria nodorum.

[4] = Botrytis cinerea, 48 h, read-out: Efficacy

| SMILES | pest or weed control at 100 ppm (Botrytis cinerea; Botrytis cinerea, 48 h, 100 ppm of active ingredient, read-out: Efficacy) [%] | pest or weed control at 500 ppm (Botrytis cinerea; [4]) [%] | inhibition at 50 µM (aflatoxines production) [%] | Efficacy (Venturia inaequalis) [%] | Efficacy (Sphaerotheca fuliginea) [%] | Efficacy (Pyrenophora teres) | Efficacy [1] [%] | inhibition at 50 µM (Fusarium graminearum) [%] | Efficacy (Alternaria solani) [%] | Efficacy (Septoria tritici) [%] | chromatographic logP [2] | Efficacy [3] [%] | % Inhibition of Aflatoxin at 50 μM (aflatoxines production) [%] | Efficacy (Puccinia triticina) [%] | % Inhibition of fungal growth at 50 μM (Fusarium graminearum) [%] | logP [2] | Efficacy (Botrytis cinerea; 100 ppm of active ingredient) [%] | Efficacy (Leptosphaeria nodorum) [%] |
| --- | --- | --- | --- | --- | --- | --- | --- | --- | --- | --- | --- | --- | --- | --- | --- | --- | --- | --- |
| CC(Cc1ncc(C(F)(F)F)cc1Cl)NC(=O)c1c(C(F)F)nn(C)c1F (stereo not drawn) [Example 190, N-{1-[3-chloro-5-(trifluoromethyl)pyridin-2-yl]propan-2-yl}-3-(difluoromethyl)-5-fluoro-1-methyl-1H-pyrazole-4-carboxamide] | 96 | 100 | 100 | 100 | 100 | 100% | 100 | 100 | 100 | 100 | 3.08 | 88 | – | – | – | – | – | – |
| CC(Cc1ncc(C(F)(F)F)cc1Cl)N(C(=O)c1c(C(F)F)nn(C)c1Cl)C1CC1 (stereo not drawn) [Example 189] | – | – | – | – | 95 | 95% | 100 | – | 100 | 70 | – | 100 | 100 | 80 | 90 | 3.96 | – | – |
| Cn1nc(C(F)F)c(C(=O)NC(C)(C)C(=O)c2ccc3ccccc3c2)c1F [Example 160] | – | – | – | 100 | 95 | 100% | 70 | – | 95 | 70 | – | 83 | 100 | – | 100 | 2.92 | 100 | 70 |
| Cc1nn(C)c(F)c1C(=O)N(C(C)Cc1ncc(C(F)(F)F)cc1Cl)C1CC1 (stereo not drawn) [compound CMP5, N-{1-[3-chloro-5-(trifluoromethyl)pyridin-2-yl]propan-2-yl}-N-cyclopropyl-5-fluoro-1,3-dimethyl-1H-pyrazole-4-carboxamide, reference compound] | – | 0 | – | – | – | – | – | – | – | – | – | – | – | 11 | – | – | – | – |
| CC(Cc1ccccc1Cl)NC(=O)c1c(C(F)F)nn(C)c1Cl (stereo not drawn) [Example 33] | – | – | – | – | 93 | 100% | – | – | 100 | – | – | – | 100 | 80 | 100 | 3.15 | – | – |
| Cc1cc(Br)ccc1C(=O)C(C)(C)NC(=O)c1c(C(F)F)nn(C)c1F [Example 133] | – | – | – | 100 | 100 | 100% | 100 | – | 95 | 80 | – | 100 | 100 | – | 100 | 3.37 | 100 | 100 |
| Cn1nc(C(F)F)c(C(=O)N(CC(F)(F)c2ccccc2Cl)C2CC2)c1F [Example 44] | – | – | – | 100 | 100 | 100% | 100 | – | 100 | 100 | – | 100 | 100 | – | 100 | 3.39 | 99 | 100 |
| CC(Cc1ncc(C(F)(F)F)cc1Cl)N(C(=O)c1cn(C)nc1C(F)F)C1CC1 (stereo not drawn) [compound CMP4, N-{1-[3-chloro-5-(trifluoromethyl)pyridin-2-yl]propan-2-yl}-N-cyclopropyl-3-(difluoromethyl)-1-methyl-1H-pyrazole-4-carboxamide, reference compound] | – | 0 | – | – | – | – | – | – | – | – | – | – | – | 11 | – | – | – | – |
| CC(Cc1ccc(Cl)cc1Cl)NC(=O)c1c(C(F)F)nn(C)c1F (stereo not drawn) [Example 67] | – | – | – | 100 | 100 | 100% | – | – | 100 | – | – | – | 100 | – | 100 | 3.46 | 89 | 90 |
| Cn1nc(C(F)F)c(C(=O)NCC(C)(C)c2ccc(Cl)cc2Cl)c1Cl [Example 88] | – | – | – | – | 94 | 100% | 80 | – | 100 | 90 | – | 88 | 100 | – | 86 | 4.03 | – | 90 |
| Cn1nc(C(F)F)c(C(=O)N(C[Si](C)(C)c2ccc3ccccc3c2)C2CC2)c1F [Example 245] | – | – | – | – | 100 | 100% | – | – | 100 | – | – | – | 100 | 95 | 100 | 4.36 | – | 100 |
| Cn1nc(C(F)F)c(C(=O)NC[Si](C)(C)c2ccc(Cl)cc2Cl)c1F [Example 240] | – | – | – | – | – | 100% and 95% | – | – | 100 | – | – | – | 100 | 100 | 84 | 4.06 | – | 95 |
| Cn1nc(C(F)F)c(C(=O)N(CC(F)(F)c2ccc(Cl)cc2Cl)C2CC2)c1F [Example 86] | – | – | – | 100 | 100 | 100% | 100 | – | 100 | 80 | – | 93 | 100 | – | 98 | 3.94 | 100 | 100 |
| Cn1nc(C(F)F)c(C(=O)N(C2CC2)C2CCCC2c2ccccc2Cl)c1F (stereo not drawn) [Example 210] | – | – | – | 100 | 100 | 100% | 100 | – | 100 | 100 | – | 86 | 100 | – | 100 | 4.31 | 100 | 90 |
| CC(Cc1ccc(Oc2ccccc2)cc1)NC(=O)c1c(C(F)F)nn(C)c1F (stereo not drawn) [Example 151] | – | – | – | – | 93 | 100% | 100 | – | 95 | 100 | – | 100 | 100 | – | 94 | 3.63 | – | 70 |
| Cn1nc(C(F)F)c(C(=O)NC[Si](C)(C)c2ccccc2Cl)c1F [Example 233] | – | – | – | – | – | 100% | – | – | 95 | 90 | – | – | 88 | 95 | 76 | 3.48 | – | 80 |
| Cn1nc(C(F)F)c(C(=O)N(CC(F)(F)c2cc(Cl)ccc2Cl)C2CC2)c1F [Example 99] | – | – | – | – | 98 | 100% | 89 | – | 95 | 100 | – | 92 | – | – | – | 3.85 | – | 95 |
| CN(C[Si](C)(C)c1ccccc1)C(=O)c1c(C(F)F)nn(C)c1F [Example 230] | – | – | – | – | – | 100% | 100 | – | 100 | 100 | – | 83 | 100 | 95 | 100 | 3.23 | – | 80 |
| Cn1nc(C(F)F)c(C(=O)NC(C)(C)C(=O)c2ncc(C(F)(F)F)cc2Cl)c1F [Example 194, N-{1-[3-chloro-5-(trifluoromethyl)pyridin-2-yl]-2-methyl-1-oxopropan-2-yl}-3-(difluoromethyl)-5-fluoro-1-methyl-1H-pyrazole-4-carboxamide] | – | – | 100 | – | 98 | 100% | 100 | 100 | 100 | 100 | 3.23 | 100 | – | – | – | – | – | 90 |
| CC(Cc1cc(Cl)cc(Cl)c1)NC(=O)c1c(C(F)F)nn(C)c1Cl (stereo not drawn) [Example 104] | – | – | – | – | 86 | 100% | – | – | 95 | – | – | – | 100 | 70 | 98 | 3.67 | – | – |
